# Measured values as given in publication PMC7801313, “Effect of lurbinectedin on the QTc interval in patients with advanced solid tumors: an exposure–response analysis” (Cancer Chemotherapy and Pharmacology, 2020).
# Columns and labels:
# [1] = lurbinectedin plasma pharmacokinetics in the QT evaluation study; type: in vivo, human
# Method: In cycle 1 and cycle 2, the following triplicate ECGs were collected 5–10 min before their time-matched PK time points: 5 min before end of the lurbinectedin infusion (EOI), 30 min, 1, 3, 24, 72 (only on cycle 1), and 168 h after EOI.
# Pharmacokinetic (PK) profiles of lurbinectedin were obtained on cycle 1 and cycle 2. Following ECGs’ acquisition, blood samples were collected into K3EDTA tubes. Tubes were gently inverted several times and centrifuged at 2000 × g for 10 min at 4 °C to separate the plasma.
# Plasma concentrations of lurbinectedin were measured by a validated liquid chromatography–mass spectrometry assay (Dynakin S.L., Spain), with ranges of 0.1–50 µg/L. The within- and between-day precisions ranged from 2.7 to 12.9% and from 5.1 to 10.7%, respectively. The within- and between-day accuracy (bias) ranged from 10 to 12% and from 5 to 6%, respectively.
# Datasets were prepared using SAS Enterprise Guide v.7.11 HF3 (SAS Institute Inc., Cary, NC, USA). Non-compartmental PK parameters were determined using Phoenix WinNonlin v.6.3 (Certara, USA). Non-linear mixed-effect modelling was performed in NONMEM v.7.3.0 (GloboMax LLC, Hanover, MD, USA). Graphical and all other statistical analyses were performed in R v.3.2.5 (R Foundation for Statistical Computing, Vienna, Austria).
# [2] = system: patients with advanced solid tumors; test: concentration-ΔQTcF linear mixed-effects modelling; type: in vivo, human
# Method: C–ΔQTcF was assessed using a linear mixed-effects (LME) model, as proposed by Garnett et al.. As the data available came from a single arm study, the LME model was characterized by the intercept ( θ1 ) and the slope ( θ2 ), and their corresponding variabilities.1 ΔQTcFij=θ1·e^η1,i+θ2·e^η2,i·Cij+θ3·Cycle+ϵij, where Cij is the model-predicted lurbinectedin total plasma concentrations (or the lurbinectedin concentrations in the effect compartment if a hysteresis is present), and η1,i and η2,i are the random effects associated with the intercept term θ1 and the slope term θ2 , respectively, and are assumed to be exponential, independent, and normally distributed. Furthermore, ϵij is the random residual variability, assumed to be an additive, independent, and normally distributed random variable. In the absence of placebo data, the unstructured placebo model consisting on the fixed effect parameters accounting for treatment-specific intercept (TRT), mean ΔQTcF at each time point evaluated (TIME), and baseline QTc was not included in the model. Based on the fact that ECG and PK assessments in this study were performed on two occasions (cycle 1 and cycle 2), the effect of cycle θ3 was also assessed in the models. To select the model for the C-ΔQTcF analysis (i.e., direct or indirect), a potential delay of the ΔQTcF effect relative to plasma concentrations (hysteresis) was graphically and statistically assessed, as proposed by Darpo et al.. To enable an adequate comparison of the model fit between the direct effect model and the effect compartment model, the model-based predicted total plasma concentrations at central compartment (“direct” model) and at the effect compartment (“indirect” model) were used. These were based on the individual PK parameters, obtained through a maximum a posteriori estimation based on the individual total plasma concentration available for each subject and a population PK model previously developed.
# The assumption of linearity of the C–ΔQTcF relationship was assessed by goodness-of-fit plots. Besides, a model with an empirical quadratic term of total plasma concentration was fitted and the significance of the quadratic term was tested. In case of the absence of trends in the goodness-of-fit plots and a non-significant quadratic term, the C–∆QTcF relationship was considered linear; otherwise, the relationship was considered non-linear.
# The predicted effect of lurbinectedin on ΔQTcF was estimated at the Cmax geometric mean either at the central or at the effect compartment in the first two cycles following the administration of 3.2 mg/m^2 i.v. over 1-h q3wk and was calculated as the estimated intercept ( θ1,Est ) plus the product of the estimated slope ( θ2,Est ) and geometric mean Cmax ( C ):2 EstimatedMeanΔQTcFC=θ1,Est+C×θ2,Est.
# Two-sided 90% confidence intervals (CIs) of the estimated ΔQTcF were computed from Eqs. 3 and 4:3 EstimatedSE=varθ1,Est+C^2varθ2,Est+2Ccovθ1,Estθ2,Est 4 90%CI=EstimatedMeanΔQTcC±t0.95,DF×EstimatedSE, where varθ1,Est is the variance of the intercept, varθ2,Est is the variance of the slope, and covθ1,Estθ2,Est is the covariance of intercept and slope; t is the critical value determined from the t-distribution; DF is the degrees of freedom; SE is the standard error; and CI is the confidence interval.
# To exclude a prolongation of QT for lurbinectedin assuming that there is no placebo effect, the upper bound (UB) of the 2-sided 90% CI of the model-predicted mean ΔQTcF had to be lower than 10 ms (threshold set at the ICH E14 Q&A R3 [11]), at the Cmax geometric mean obtained after administration of the clinically relevant dose of 3.2 mg/m^2 i.v. over 1-h q3wk.
# The Cmax geometric mean either at the central or at the effect compartment, at which UB 90% CI of the model-predicted mean ΔQTcF would be above 10 ms and 20 ms thresholds, was also estimated according to the formulas provided above.
# [3] = system: patients with advanced solid tumors; test: cardiac adverse events in the QT evaluation study; type: in vivo, human
# Method: Cardiac adverse events (AEs) observed in the period of this QT evaluation study were evaluated and graded according to the National Cancer Institute Common Terminology Criteria for Adverse Events (NCI-CTCAE), v.4 and coded using the Medical Dictionary for Regulatory Activities (MedDRA) v.16.0. Laboratory results of particular relevance (i.e., changes in albumin, calcium, potassium, or magnesium) were graded according to the NCI-CTCAE v.4.
# [4] = system: telemetered dogs; design: method as in data on file; details: single i.v. bolus at maximum tolerated dose, ref data on file; cited from earlier work
smiles,measurement,setting,value
"COc1ccc2[nH]c3c(c2c1)CCN[C@]31CS[C@@H]2c3c(OC(C)=O)c(C)c4c(c3[C@H](COC1=O)N1[C@@H]2[C@H]2c3c(cc(C)c(OC)c3O)C[C@@H]([C@@H]1O)N2C)OCO4 [lurbinectedin, Lurbinectedin]","observed lurbinectedin concentration, mean (Stdv)","[1]; Cycle 1, 0.92 h after start of infusion (Cmax)",106.02 (54.52) µg/L
same,"observed lurbinectedin concentration, mean (Stdv)","[1]; Cycle 1, 1.5 h after start of infusion",40.01 (24.35) µg/L
same,"observed lurbinectedin concentration, mean (Stdv)","[1]; Cycle 1, 2 h after start of infusion",27.22 (14.05) µg/L
same,"observed lurbinectedin concentration, mean (Stdv)","[1]; Cycle 1, 4 h after start of infusion",17.86 (8.07) µg/L
same,"observed lurbinectedin concentration, mean (Stdv)","[1]; Cycle 1, 25 h after start of infusion",3.84 (1.87) µg/L
same,"observed lurbinectedin concentration, mean (Stdv)","[1]; Cycle 1, 73 h after start of infusion",1.53 (1.13) µg/L
same,"observed lurbinectedin concentration, mean (Stdv)","[1]; Cycle 1, 169 h after start of infusion",0.51 (0.45) µg/L
same,"observed lurbinectedin concentration, mean (Stdv)","[1]; Cycle 2, 0.92 h after start of infusion (Cmax)",136.60 (145.04) µg/L
same,"observed lurbinectedin concentration, mean (Stdv)","[1]; Cycle 2, 2 h after start of infusion",28.22 (16.84) µg/L
same,"observed lurbinectedin concentration, mean (Stdv)","[1]; Cycle 2, 4 h after start of infusion",18.82 (10.94) µg/L
same,"observed lurbinectedin concentration, mean (Stdv)","[1]; Cycle 2, 169 h after start of infusion",0.56 (0.57) µg/L
same,Tmax,[1]; cycle 1,0.92 h
same,mean clearance (non-compartmental),"[1]; cycle 1, 39 patients",11.8 L/h
same,mean volume of distribution (non-compartmental),"[1]; cycle 1, 39 patients",347.7 L
same,Tmax,[1]; cycle 2,4 h
same,Cmax at the effect compartment associated with 10 ms UB 90% CI of ΔQTcF,[2]; delayed effect model,36.18 ng/mL
same,Cmax at the effect compartment associated with 20 ms UB 90% CI of ΔQTcF,[2]; delayed effect model,61.94 ng/mL
same,dose corresponding to 10 ms UB 90% CI of ΔQTcF,[2]; delayed effect model,3.8 mg/m^2
same,dose corresponding to 20 ms UB 90% CI of ΔQTcF,[2]; delayed effect model,6.5 mg/m^2
same,fold increase over recommended dose Cmax at 10 ms threshold,[2]; delayed effect model,1.21 fold
same,fold increase over recommended dose Cmax at 20 ms threshold,[2]; delayed effect model,2.03 fold
same,Cmax associated with 10 ms UB 90% CI of ΔQTcF,[2]; direct effect model,129.05 ng/mL
same,Cmax associated with 20 ms UB 90% CI of ΔQTcF,[2]; direct effect model,241.25 ng/mL
same,dose corresponding to 10 ms UB 90% CI of ΔQTcF,[2]; direct effect model,3.6 mg/m^2
same,dose corresponding to 20 ms UB 90% CI of ΔQTcF,[2]; direct effect model,6.6 mg/m^2
same,Cmax (central compartment),"[2]; direct effect model, recommended dose",116.62 ng/mL
same,Slope of C-ΔQTcF,[2]; final delayed effect (effect compartment) model,0.289 L·ms/µg
same,"Keo, equilibration rate constant",[2]; final delayed effect model,0.298 h⁻¹
same,Slope of C-ΔQTcF,[2]; final direct model,0.072 L·ms/µg
same,cardiac safety findings,[3]; QT evaluation study period,No relevant cardiac safety findings
same,adverse events suggestive of proarrhythmic potential,[3]; in vivo,No adverse events suggestive of proarrythmic potential
same,cardiovascular changes,[4],mild decreases in blood pressure and increased heart rate
same,"effects on lead II ECG variables (PR, QT, QTcF, QTcV, QRS), ECG gross morphology, cardiac rhythm",[4],No effects were observed
